These results are taken from US11739074B2, “Ras inhibitors” (Revolution Medicines, Inc., priority 2019, dated 2023).

Where two headings read alike, the source gives them in different places.

One assay concerns NCI-H358 (K-Ras G12C). The experiment in a line: CellTiter-Glo cell viability assay, H358. The assay is classed as cell-based. Conditions: Homo sapiens, NCI-H358, 120 h, read-out: H358 Cell Viability IC50. An outline of the steps:
(§1)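 Direct compound addition to plated cells; 5-day exposure; ~30 min RT equilibration; CellTiter-Glo luminescence. Normalization: (sample/avg DMSO)*100; 4-parameter logistic curve fit.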

In assay [1] the test system is AsPC-1 (K-Ras G12D). The experiment in a line: Potency assay: pERK in AsPC-1 cells. In kind it is cell-based. The following applies: Homo sapiens.
Another assay has as its target KRAS G12V (Homo sapiens, UniProt P01116+P62937, G12V). The experiment in a line: Ras-Raf disruption/FRET/MOA assay, KRAS G12V. The assay is classed as biochemical. Conditions: disruption of BRAF RBD binding, with Cyclophilin A; read-out: KRAS G12V FRET IC50. The method, boiled down: (§2)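 Buffer 25 mM HEPES pH 7.3, 100 mM NaCl, 5 mM MgCl2, 0.1% BSA, 0.002% Tween20; His6-KRAS-GMPPNP 12.5 nM, CypA 25 μM, GST-BRAF^RBD 50 nM; cpd 10-pt 3-fold from 30 μM; 3 h 25° C; then Eu/APC antibodies 1.5 h; TR-FRET ratio vs DMSO.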

The target in a further assay is KRAS G12S (Homo sapiens, UniProt P01116+P62937, G12S). The experiment in a line: Ras-Raf disruption/FRET/MOA assay, KRAS G12S. The assay is classed as biochemical. The following applies: disruption of BRAF RBD binding, with Cyclophilin A; read-out: KRAS G12S FRET IC50. An outline of the steps: as §2
The target in another assay is KRAS WT (Homo sapiens, UniProt P01116+P62937). Description: Ras-Raf disruption/FRET/MOA assay, KRAS WT. The assay is classed as biochemical. Conditions: disruption of BRAF RBD binding, with Cyclophilin A; read-out: KRAS WT FRET IC50. The method, boiled down:
as §2

The subject of assay [2] is AsPC-1 (K-Ras G12D). Description: CellTiter-Glo cell viability assay, AsPC-1. The assay is classed as cell-based. The following applies: Homo sapiens, ASPC1, 120 h, read-out: AsPC-1 Cell Viability IC50. An outline of the steps: as §1
For orientation: In ATP-based viability assays light output follows the ATP content of the culture.

In another assay the target is KRAS G12C (Homo sapiens, UniProt P01116+P62937, G12C). Description: Ras-Raf disruption/FRET/MOA assay, KRAS G12C. Conditions: disruption of BRAF RBD binding, with Cyclophilin A; read-out: KRAS G12C FRET IC50. The assay is classed as biochemical. An outline of the steps:
as §2

The target in another assay is KRAS G13D (Homo sapiens, UniProt P01116+P62937, G13D). Description: Ras-Raf disruption/FRET/MOA assay, KRAS G13D. The assay is classed as biochemical. The following applies: disruption of BRAF RBD binding, with Cyclophilin A; read-out: KRAS G13D FRET IC50. An outline of the steps: as §2
A further assay has as its target KRAS G12D (Homo sapiens, UniProt P01116+P62937, G12D). The experiment in a line: Ras-Raf disruption/FRET/MOA assay, KRAS G12D. Conditions: disruption of BRAF RBD binding, with Cyclophilin A; read-out: KRAS G12D FRET IC50. In kind it is biochemical. The method, boiled down:
as §2

For a further assay, the target named is T1, NRAS G12C (Homo sapiens, UniProt P01111+P62937, G12C).
T1 construct: His6
Description: Ras-Raf disruption/FRET/MOA assay, NRAS G12C. In kind it is biochemical. Conditions: NRAS G12C; read-out: NRAS G12C FRET data IC50. The method, boiled down: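 Disruption of Ras:RAF binding was read as a drop in TR-FRET ratio versus DMSO controls. The buffer was 25 mM HEPES pH 7.3, 0.002% Tween20, 0.1% BSA, 100 mM NaCl and 5 mM MgCl2. Compounds were tested as a 10-point 3-fold dilution series from 30 μM. Detection used 10 nM anti-His Eu-W1024 and 50 nM anti-GST allophycocyanin.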

Another assay deals with KRAS G13C (Homo sapiens, UniProt P01116+P62937, G13C). Description: Ras-Raf disruption/FRET/MOA assay, KRAS G13C. In kind it is biochemical. The following applies: disruption of BRAF RBD binding, with Cyclophilin A; read-out: KRAS G13C FRET IC50. An outline of the steps: as §2
The mark [3] stands for this setting: ASPC1, read-out: pERK EC50 (AsPC-1 KRAS G12D).

Chain of KRAS G13C (P01116 1-169 isoform P01116-2 G13C limits assumed): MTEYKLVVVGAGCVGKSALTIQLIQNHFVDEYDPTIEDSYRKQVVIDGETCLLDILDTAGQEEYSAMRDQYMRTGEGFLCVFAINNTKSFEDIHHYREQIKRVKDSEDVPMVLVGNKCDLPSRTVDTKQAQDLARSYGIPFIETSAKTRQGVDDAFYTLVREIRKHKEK
Chain of KRAS G13C (P62937 whole entry): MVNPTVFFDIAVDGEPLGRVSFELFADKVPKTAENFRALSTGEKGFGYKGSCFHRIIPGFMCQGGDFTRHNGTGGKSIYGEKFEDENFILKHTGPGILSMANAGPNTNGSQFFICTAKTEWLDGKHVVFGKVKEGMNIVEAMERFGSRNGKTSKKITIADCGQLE
Chain of KRAS G12S (P01116 1-169 isoform P01116-2 G12S limits assumed): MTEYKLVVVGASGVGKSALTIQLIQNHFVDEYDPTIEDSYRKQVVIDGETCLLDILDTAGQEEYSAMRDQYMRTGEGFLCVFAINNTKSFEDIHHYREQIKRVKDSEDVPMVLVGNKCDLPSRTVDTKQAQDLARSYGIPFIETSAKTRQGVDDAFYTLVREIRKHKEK
Chain of KRAS G12S (P62937 whole entry): as the sequence (P62937 whole entry) above
Chain of KRAS G13D (P01116 1-169 isoform P01116-2 G13D limits assumed): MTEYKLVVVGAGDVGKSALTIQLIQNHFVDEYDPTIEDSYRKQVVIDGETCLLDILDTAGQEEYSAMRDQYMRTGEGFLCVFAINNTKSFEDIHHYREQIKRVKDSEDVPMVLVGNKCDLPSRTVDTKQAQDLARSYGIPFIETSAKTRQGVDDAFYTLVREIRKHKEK
Chain of KRAS G13D (P62937 whole entry): as the sequence (P62937 whole entry) above
Chain of KRAS G12C (P01116 1-169 isoform P01116-2 G12C limits assumed): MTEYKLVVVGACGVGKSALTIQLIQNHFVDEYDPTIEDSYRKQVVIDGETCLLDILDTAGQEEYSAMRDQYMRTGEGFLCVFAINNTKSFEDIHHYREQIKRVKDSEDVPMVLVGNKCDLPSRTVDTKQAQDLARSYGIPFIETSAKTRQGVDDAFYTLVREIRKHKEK
Chain of KRAS G12C (P62937 whole entry): as the sequence (P62937 whole entry) above
T1 sequence (P01111 whole entry G12C): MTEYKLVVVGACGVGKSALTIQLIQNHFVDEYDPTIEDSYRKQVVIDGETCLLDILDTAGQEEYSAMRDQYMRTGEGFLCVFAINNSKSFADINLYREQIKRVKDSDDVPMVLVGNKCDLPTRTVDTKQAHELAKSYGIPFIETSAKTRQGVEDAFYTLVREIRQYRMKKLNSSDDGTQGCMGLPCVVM
T1 sequence (P62937 whole entry): as the sequence (P62937 whole entry) above
Chain of KRAS G12V (P01116 1-169 isoform P01116-2 G12V limits assumed): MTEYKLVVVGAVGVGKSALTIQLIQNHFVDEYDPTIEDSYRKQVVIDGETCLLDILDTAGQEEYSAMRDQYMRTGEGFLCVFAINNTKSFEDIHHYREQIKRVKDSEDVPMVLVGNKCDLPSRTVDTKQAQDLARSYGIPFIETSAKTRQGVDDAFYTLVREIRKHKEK
Chain of KRAS G12V (P62937 whole entry): as the sequence (P62937 whole entry) above
Chain of KRAS G12D (P01116 1-169 isoform P01116-2 G12D limits assumed): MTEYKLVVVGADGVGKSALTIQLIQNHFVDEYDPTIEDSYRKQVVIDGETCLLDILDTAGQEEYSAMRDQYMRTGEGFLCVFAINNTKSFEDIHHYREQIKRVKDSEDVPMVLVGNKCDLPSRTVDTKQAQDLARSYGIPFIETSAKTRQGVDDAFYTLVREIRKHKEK
Chain of KRAS G12D (P62937 whole entry): as the sequence (P62937 whole entry) above
Chain of KRAS WT (P01116 1-169 isoform P01116-2 limits assumed): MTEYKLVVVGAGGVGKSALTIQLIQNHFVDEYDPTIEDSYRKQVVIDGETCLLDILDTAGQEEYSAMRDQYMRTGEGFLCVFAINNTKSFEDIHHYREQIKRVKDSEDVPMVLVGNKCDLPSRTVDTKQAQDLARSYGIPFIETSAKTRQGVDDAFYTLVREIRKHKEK
Chain of KRAS WT (P62937 whole entry): as the sequence (P62937 whole entry) above

With `CCn1c(-c2cnccc2COC)c2c3cc(ccc31)-c1cc(O)cc(c1)C[C@H](NC(=O)[C@H](C(C)C)N(C)C(=O)CN(C)C(=O)C1CN1C(C)=O)C(=O)N1CCC[C@H](N1)C(=O)OCC(C)(C)C2` (some centres unmarked) [Compound 14], the IC50 lay in the range of 100 to 1000 nM in the assay on NCI-H358 (K-Ras G12C); 100 to 1000 nM on KRAS G12V; 100 to 1000 nM on KRAS G12S; 100 to 1000 nM at KRAS WT; 1000 to 10000 nM with AsPC-1 (K-Ras G12D) [2]; 10 to 100 nM at KRAS G12C. Also, the IC50 at KRAS G13D lay within 100 to 1000 nM; on KRAS G12D, 100 to 1000 nM; at NRAS G12C, 10 to 100 nM; at KRAS G13C it was 10 to 100 nM. Also, the EC50 in the assay with AsPC-1 (K-Ras G12D) [1] (setting [3]) is less than 5000 nM.

For `CCn1c(-c2cnccc2COC)c2c3cc(ccc31)-c1cc(O)cc(c1)C[C@H](NC(=O)[C@H](C(C)C)N(C)C(=O)CN(C)C(=O)[C@@H]1[C@H](C(=O)OC)N1[S@@+]([O-])C(C)(C)C)C(=O)N1CCC[C@H](N1)C(=O)OCC(C)(C)C2` (some centres unmarked) [Compound 50], the IC50 in the assay with NCI-H358 (K-Ras G12C) was 100 to 1000 nM; on KRAS G12V it was 10 to 100 nM; on KRAS G12S, 10 to 100 nM; on KRAS WT it was 100 to 1000 nM; in the assay with AsPC-1 (K-Ras G12D) [2], greater than 10000 nM; at KRAS G12C it was 10 to 100 nM. For the same molecule, the IC50 lay in the range of 100 to 1000 nM at KRAS G13D, 100 to 1000 nM at KRAS G12D, 10 to 100 nM at NRAS G12C and 10 to 100 nM on KRAS G13C. For the same molecule, the EC50 with AsPC-1 (K-Ras G12D) [1] (setting [3]) is less than 5000 nM.

Regarding `CCn1c(-c2cnccc2COC)c2c3cc(ccc31)-c1cc(O)cc(c1)C[C@H](NC(=O)[C@H](C(C)C)N(C)C(=O)CN(C)C(=O)[C@H]1[C@@H](C3CC3)N1[S@+]([O-])C(C)(C)C)C(=O)N1CCC[C@H](N1)C(=O)OCC(C)(C)C2` (some centres unmarked) [Compound 52], the IC50 fell in the range of 100 to 1000 nM in the assay on NCI-H358 (K-Ras G12C); 100 to 1000 nM on KRAS G12V; 10 to 100 nM at KRAS G12S; 10 to 100 nM at KRAS WT; 1000 to 10000 nM with AsPC-1 (K-Ras G12D) [2]; 10 to 100 nM on KRAS G12C. The IC50 on KRAS G13D lay within 100 to 1000 nM; at KRAS G12D, 100 to 1000 nM; at NRAS G12C, 10 to 100 nM; at KRAS G13C, 100 to 1000 nM. In addition, the EC50 with AsPC-1 (K-Ras G12D) [1] (setting [3]) is less than 5000 nM.

As for `CCn1c(-c2cccnc2[C@H](C)OC)c2c3cc(ccc31)-c1cc(O)cc(c1)C[C@H](NC(=O)[C@H](C1CCCC1)N(C)C(=O)[C@H]1CCN(C(=O)[C@H]3CN3)C1)C(=O)N1CCC[C@H](N1)C(=O)OCC(C)(C)C2` [Compound 58], the IC50 in the assay on NCI-H358 (K-Ras G12C) (NCI-H358, K-Ras G12C, 5-day treatment) is less than 10 nM; at KRAS G12V, 10 to 100 nM; on KRAS G12S it was 10 to 100 nM; on KRAS WT, 10 to 100 nM; in the assay on AsPC-1 (K-Ras G12D) [2] (AsPC-1, K-Ras G12D, 5-day treatment) it was 100 to 1000 nM; on KRAS G12C, less than 10 nM. The IC50 on KRAS G13D was 10 to 100 nM; on KRAS G12D, 100 to 1000 nM; at NRAS G12C it was less than 10 nM; on KRAS G13C, 10 to 100 nM. Besides, the EC50 in the assay on AsPC-1 (K-Ras G12D) [1] (ASPC1, AsPC-1 cells, K-Ras G12D, read-out: pERK EC50 (AsPC-1 KRAS G12D)) was less than 5000 nM.

One may read the IC50 as the midpoint of a concentration-inhibition curve. In general, EC50 refers to the concentration giving half of the maximal effect.
